Measured values reported in PubChem BioAssay AID1418 (Emory University Molecular Libraries Screening Center, 2008).
pIC50: −log10 of the molar value. The source made the active and inactive calls. How the calls were made is not given here.

The compounds below were run against Induced myeloid leukemia cell differentiation protein Mcl-1 (Homo sapiens) (UniProt Q07820) (assay: blockers of Bid binding to Mcl-1 – biochemical, TR-FRET, dose response (AID 1418)). Conditions: Mcl-1/Bid peptide binding, TR-FRET (europium/Dy647), 2 hr.
Chain of Induced myeloid leukemia cell differentiation protein Mcl-1 (Homo sapiens) (Q07820 whole entry, looked up): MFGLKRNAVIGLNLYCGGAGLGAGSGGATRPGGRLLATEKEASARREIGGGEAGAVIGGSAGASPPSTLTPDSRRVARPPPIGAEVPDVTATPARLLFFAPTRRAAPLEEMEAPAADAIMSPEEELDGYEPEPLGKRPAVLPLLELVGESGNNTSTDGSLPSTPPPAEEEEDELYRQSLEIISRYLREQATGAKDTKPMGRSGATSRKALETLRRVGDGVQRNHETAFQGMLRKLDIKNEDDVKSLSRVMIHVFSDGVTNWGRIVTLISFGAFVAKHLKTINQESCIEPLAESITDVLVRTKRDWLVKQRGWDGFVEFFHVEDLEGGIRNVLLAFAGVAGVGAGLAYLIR
CCC(=NC(C)c1ccccc1)c1c(O)[nH]c(=O)[nH]c1=O (stereo unspecified) gave a pIC50 of 6.35.
In the case of O=C(CSc1nnc2scc(-c3ccccc3)n12)N1CCN(Cc2ccccc2)CC1, the IC50 was > 54 µM (inactive).
C#CCOCCOCCOCCNc1nc(N2CCN(C(=O)[C@H](Cc3cc4ccccc4[nH]3)n3cc([C@@H](N)C(C)CC)nn3)CC2)nc(N2CCN(C(=O)[C@H](CCCCN)n3cc([C@@H](N)CC(C)C)nn3)CC2)n1 (stereo partly specified) gave a pIC50 of 4.77.
For COc1ccccc1CNC(=O)CC(NS(=O)(=O)c1ccc(C)cc1)c1ccco1 (stereo unspecified), the IC50 was > 54 µM (inactive).
With Cc1cc(C)nc(NCC(O)COc2ccccc2C)n1 (stereo unspecified) the IC50 was > 54 µM (inactive).
For O=C(Cc1c(Cl)cccc1Cl)OCC(=O)N1CCc2ccccc2C1, the IC50 was > 54 µM (inactive).
With O=C(Cc1sc(-c2ccccc2Cl)nc1-c1ccccc1)Nc1ccccc1 the IC50 was > 54 µM (inactive).
O=C(NCc1ccco1)c1cccn2c(=O)c3cc4ccccc4cc3nc12 showed a pIC50 of 6.28.
COc1cc(OC)cc(C(=O)N(CCCN2C(=O)c3cccc4cccc(c34)C2=O)c2cccc(OC)c2)c1 was tested, and the IC50 was > 54 µM (inactive).
With Cc1ccc(-n2c(SCC(=O)NCc3ccco3)nc3sc4c(c3c2=O)CC(C)(C)SC4)cc1 the IC50 was > 54 µM (inactive).
For CCN(CC)C(=O)COC(=O)c1cc(-c2ccc(OC)cc2)nc2ccccc12, the IC50 was > 54 µM (inactive).
In the case of COc1cc2c(cc1OC)-c1cc(NC3CCCCCCC3)nc(=O)n1CC2, the IC50 was > 54 µM (inactive).
With Cc1ccc(C)c(C(=O)COC(=O)CCCC(=O)Nc2cc(C(F)(F)F)ccc2Cl)c1 the IC50 was > 54 µM (inactive).
In the case of COc1cc(OC)c2c(O)c3c(c(-c4c5c(c(O)c6c(OC)cc(OC)cc46)CO[C@@H](C)[C@H]5O)c2c1)[C@H](O)[C@H](C)OC3, the pIC50 was 4.84.
COC(=O)c1ccc2nc(Nc3nc4ccc(F)cc4s3)sc2c1 gave a pIC50 of 6.31.
C=CCC1(/C=N/O)CCOC(C)(C)C1 (stereo unspecified) was tested, and the IC50 was > 54 µM (inactive).
CC(=O)OCCn1c2nc(=O)[nH]c(=O)c-2nc2cc(C)c(C)cc21 was tested, and the pIC50 was 4.73.
With Cc1ccc(Cl)c(OCCCN(C)Cc2ccccc2)c1 the IC50 was > 54 µM (inactive).
With CC(C)C1(C)N=C(c2ncccc2C(=O)O)NC1=O (stereo unspecified) the IC50 was > 54 µM (inactive).
For O=C(CP(=O)(c1ccccc1)c1ccccc1)Nc1nc2ccc(Cl)cc2s1, the IC50 was > 54 µM (inactive).
With Cc1cccc(N(CC(=O)Nc2c(C)n(C)n(-c3ccccc3)c2=O)S(C)(=O)=O)c1 the IC50 was > 54 µM (inactive).
With CCOc1ccc(NC(=O)c2oc3ccccc3c2NC(=O)CC)cc1 the IC50 was > 54 µM (inactive).
Cc1ccc(N2CCN(C3=NC(=O)/C(=C\c4cccs4)S3)CC2)cc1 was tested, and the IC50 was > 54 µM (inactive).
With COC(=O)c1c(NC(=O)c2cnccn2)sc2c1CCC2 the IC50 was > 54 µM (inactive).
In the case of CN(C)c1ccnc2sc(C(N)=O)c(N)c12, the IC50 was > 54 µM (inactive).
For O=C(Nc1cccc(-c2csc(-c3ccccc3)n2)c1)c1cccs1, the IC50 was > 54 µM (inactive).
With NC(=O)c1cccn1-c1ncc(C(F)(F)F)cc1Cl the IC50 was > 54 µM (inactive).
C=CCn1c(SCc2ccc(C#N)cc2)nnc1-c1cccc(OC)c1 was tested, and the IC50 was > 54 µM (inactive).
With CC(=O)c1c(N=CN(C)C)nc(C)nc1-c1ccccc1 the IC50 was > 54 µM (inactive).
CC1=C(C#N)C(=O)NC(=O)/C1=C\c1ccc(-c2cc(C)c(C)cc2[N+](=O)[O-])o1 was tested, and the pIC50 was 5.94.
Clc1ccccc1-c1nc2ccccc2[nH]1 was tested, and the IC50 was > 54 µM (inactive).
Cc1cccc2c3nc4ccccc4nc3n(CCCN3C(=O)c4ccccc4C3=O)c12 was tested, and the IC50 was > 54 µM (inactive).
In the case of O=C(COC(=O)CC(NC(=O)c1ccccc1Cl)c1ccccc1)Nc1cccc(F)c1 (stereo unspecified), the IC50 was > 54 µM (inactive).
Work on COc1ccc(CN2C(=O)c3cccnc3C2Nc2ccc(OC)c(Cl)c2)cc1 (stereo unspecified) yielded a pIC50 of 6.13.
O=C1NC(=S)N(C2CC2)C(=O)/C1=C/c1ccc2c(c1)CCN2CCCCl gave a pIC50 of 6.18.
In the case of Cc1ccc(-c2cc(-c3ccc4c(c3)OCO4)c(C#N)c(N)n2)o1, the pIC50 was 4.78.
With Cc1nc2c(-c3ccc(Cl)cc3)cnn2c2c1CCC2 the IC50 was > 54 µM (inactive).
O=C(COc1ccc(S(=O)(=O)N2CCCC2)cc1Cl)NC1CC1 was tested, and the IC50 was > 54 µM (inactive).
With O=C1Nc2ccccc2/C1=N/N=C/c1ccc(-c2ccc([N+](=O)[O-])cc2)o1 the pIC50 was 6.23.
With CC(=O)N1CCc2cc(S(=O)(=O)NC(Cc3ccccc3)C(=O)NC3CCCCCC3)ccc21 (stereo unspecified) the IC50 was > 54 µM (inactive).
CN1CCCCC1c1ccc(-c2cccnc2)nc1 (stereo unspecified) was tested, and the IC50 was “inactive”.
COc1ccc(CCNc2nc(-c3cccnc3)cs2)cc1OC was tested, and the IC50 was > 54 µM (inactive).
For CSc1ccccc1NC(=O)CNCCCN1CCOCC1, the IC50 was > 54 µM (inactive).
O=C(CN1C(=O)/C(=C2\SC(=S)N(C3CCS(=O)(=O)C3)C2=O)c2ccccc21)Nc1ccccc1 (stereo unspecified) was tested, and the pIC50 was 6.14.
COc1cc2c(cc1OC)-c1cc(NCc3ccccn3)nc(=O)n1CC2 showed a pIC50 of 6.26.
For COC(=O)c1ccc(NC(=O)c2ccccc2N(C)S(=O)(=O)c2ccccc2)cc1, the IC50 was > 54 µM (inactive).
With O=C(O)c1[nH]c2ccccc2c1C=NCc1ccccc1Cl the IC50 was > 54 µM (inactive).
For COc1ccc(CCNC(=O)c2ccc(=O)[nH]n2)cc1OC, the IC50 was > 54 µM (inactive).
With COc1cccc(NC(=O)C2c3cc(OC)c(OC)cc3C(=O)N(C)C2c2cccnc2)c1 (stereo unspecified) the IC50 was > 54 µM (inactive).
NNc1nc(-c2ccccc2)cs1 showed a pIC50 of 6.24.
Work on Cc1ccc(NC(=O)CN2C(=O)S/C(=C/c3ccc(-c4cc(C(=O)O)ccc4C)o3)C2=O)cc1C yielded a pIC50 of 5.57.
In the case of COc1ccc(-n2c(=O)cc(N3CCOCC3)[nH]c2=O)cc1, the IC50 was > 54 µM (inactive).
With O=C(COc1cccnc1[N+](=O)[O-])c1ccc(Cl)s1 the IC50 was > 54 µM (inactive).
Work on O=C(/C=C/c1cccc([N+](=O)[O-])c1)Nc1ccc(NC(=O)c2cccs2)cc1 yielded a pIC50 of 4.97.
With COC(=O)CSc1nc(C)c(C)c(C)c1C(N)=O the IC50 was > 54 µM (inactive).
COc1cc2c(cc1OC)C(Nn1cnnc1)=NC1(CCCC1)C2 was tested, and the IC50 was > 54 µM (inactive).
With COc1cc2[nH]c(=S)n(N(C(C)=O)C(C)=O)c(=O)c2cc1OC the IC50 was > 54 µM (inactive).
O=[N+]([O-])c1ccc(/C=N/NC(=S)Nc2ccc(Cl)cc2Cl)s1 showed a pIC50 of 5.83.
Nc1nc(Nc2cccc(F)c2)nc(N2CCOCC2)c1[N+](=O)[O-] was tested, and the IC50 was > 54 µM (inactive).
CC(=O)N(/N=C/c1cccc(C)c1)c1nc(-c2ccc(Br)cc2)cs1 was tested, and the IC50 was > 54 µM (inactive).
With O=C(N/N=C/C(Br)=C\c1ccccc1)c1ccco1 the IC50 was > 54 µM (inactive).
Cc1sc(NC(=O)c2cc(-c3ccc(Cl)cc3)nc3ccccc23)c(C(N)=O)c1C gave a pIC50 of 6.04.
For N/C(CS(=O)(=O)c1ccc(F)cc1)=N\O, the IC50 was > 54 µM (inactive).
CN1C(=O)/C(=C/c2ccccc2OCc2cccc(F)c2)NC1=S was tested, and the IC50 was > 54 µM (inactive).
Cc1ccc(C)c(NC(=O)C2CCCN2/C=C/C(=O)C(F)(F)F)c1 (stereo unspecified) was tested, and the IC50 was > 54 µM (inactive).
In the case of C=C(C)Cn1c(Sc2nnc(C)s2)nc2c1c(=O)[nH]c(=O)n2C, the IC50 was > 54 µM (inactive).
For O=C(Nc1ccc(S(=O)(=O)Nc2nccs2)cc1)c1cc(-c2ccccc2Cl)nc2ccccc12, the IC50 was > 54 µM (inactive).
Cc1nc2c(c(=O)n1CCC1=CCCCC1)c1nc3ccccc3nc1n2/N=C/c1ccco1 was tested, and the IC50 was > 54 µM (inactive).
In the case of O=C(CSc1nc(-c2ccccc2)cc(C(F)(F)F)n1)N1CCOCC1, the IC50 was > 54 µM (inactive).
For CC1(C)Oc2ccc3ccc(=O)oc3c2C[C@H]1O, the IC50 was > 54 µM (inactive).
For Cc1ccc(CNC(=O)CCS(=O)(=O)c2cccc3nonc23)cc1, the IC50 was > 54 µM (inactive).
